Data from PubChem BioAssay (NCI).
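A five-concentration, 48-hour dose response in 96-well plates underlies each endpoint, interpolated linearly between surrounding concentrations. GI50 = concentration required for 50% inhibition of growth. TGI: total growth inhibition.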

Assays:
Test in all cases: inhibition of tumour cell growth, NCI panel, 48 h
DU-145 prostate = tested on: DU-145 prostate
NCI-H522 lung = tested on: NCI-H522 lung
COLO 205 colon = tested on: COLO 205 colon
LOX IMVI melanoma = tested on: LOX IMVI melanoma
HCT-15 colon = tested on: HCT-15 colon
HOP-92 NSCLC = tested on: HOP-92 NSCLC
NCI-H460 lung = tested on: NCI-H460 lung
UACC-257 melanoma = tested on: UACC-257 melanoma
MDA-MB-231 breast = tested on: MDA-MB-231 breast
SK-MEL-5 melanoma = tested on: SK-MEL-5 melanoma

| SMILES | GI50 (DU-145 prostate) | TGI (DU-145 prostate) | GI50 (NCI-H522 lung) | TGI (NCI-H522 lung) | TGI (COLO 205 colon) | GI50 (LOX IMVI melanoma) | TGI (LOX IMVI melanoma) | TGI (HCT-15 colon) | TGI (HOP-92 NSCLC) | GI50 (NCI-H460 lung) | TGI (NCI-H460 lung) | TGI (UACC-257 melanoma) | TGI (MDA-MB-231 breast) | GI50 (SK-MEL-5 melanoma) | TGI (SK-MEL-5 melanoma) | GI50 (COLO 205 colon) | GI50 (HCT-15 colon) | GI50 (HOP-92 NSCLC) | GI50 (UACC-257 melanoma) | GI50 (MDA-MB-231 breast) |
| --- | --- | --- | --- | --- | --- | --- | --- | --- | --- | --- | --- | --- | --- | --- | --- | --- | --- | --- | --- | --- |
| CC[C@@]1(O)C(=O)OCc2c1cc1n(c2=O)Cc2cc3c(N)cccc3nc2-1 | 0.004 µM | < 0.0299 µM | 0.0234 µM | 1.35 µM | 6.22 µM | 0.00462 µM | 0.255 µM | 33.7 µM | 1.99 µM | 0.00439 µM | 0.462 µM | 2.99 µM | > 19.9 µM | 0.0214 µM | 0.0806 µM |  |  |  |  |  |
| c1ccc(CC(NCCNC(Cc2ccccc2)c2ccccc2)c2ccccc2)cc1 (stereo not given) | 0.395 µM | 1.87 µM | 0.32 µM | 1.06 µM | 0.382 µM | 0.185 µM | 0.375 µM | 1.64 µM | 1.48 µM | 0.294 µM | 0.719 µM | 2.4 µM | 1.24 µM | 0.271 µM | 0.779 µM | 0.191 µM | 0.463 µM | 0.369 µM | 1.02 µM | 0.331 µM |
